{
  "source": "patent US9464326B2",
  "about": "“Total and phosphorylated IL-1 receptor-associated kinase-1 and IL-1 receptor-associated kinase-4 as a biomarker for cancer progression and chemotherapy resistance” (University of Maryland, Baltimore, priority 2012, dated 2016)",
  "test_system": "CCRF-CEM cells",
  "assay": "Cell number and apoptosis assays",
  "format": "cell-based, human",
  "conditions": "IRAK-1,-4 inhibitor 0-20 μM plus titrated drug, apoptosis by 7AAD at 48 hours, FIG. 23",
  "protocol": "TLR ligands were diluted 2-fold. Cell lines (25-40×10^3/well) were cultured for 54 hours, whereas fresh patient-derived T-ALL cells (200×10^3/well) were cultured for 30 hours prior to adding [^3H]-thymidine for 18 hours. After this time point, cells were harvested with a Packard Filter-Mate-96 cell harvester (Perkin Elmer, Waltham, Mass., USA) and counted on Packard Top Count-NXT (Perkin Elmer, Waltham, Mass., USA). Results were expressed as average counts per minute (cpm). In some experiments CCRF-CEM cells were pre-treated with TLR1-TLR2 ligand (Pam3CysK4; 2.5 ug/ml) for 48 hrs, washed, and then cultured in the presence of varying concentrations of FBS. Forty-eight hours later, proliferation (±SD) was determined by ^3H-thymidine incorporation. Alternatively, apoptosis was measured by flow cytometry after staining cells with Annexin-V (BD Pharmingen, San Diego, Calif., USA) and propidium iodide (Sigma). Cell number was counted under microscopy by staining cells with trypan blue.\nCCRF-CEM cells were treated with IRAK-1,-4 inhibitor for 24, 48, 72, and 96 hours.\nThe T-ALL cell line CCRF-CEM was cultured in the presence of 0, 1.2, 5, 10, and 20 μM IRAK-1,-4 inhibitor. (FIG. 23). To each concentration of IRAK-1,-4 inhibitor titrating doses of ABT-737 (1000→15 nM) vincristine, VS (10→0.1 nM), and paclitaxol, PAC (100→1.5 nM). […] Apoptosis was measure 48 hours later by staining cells with 7AAD and analyzed by flow cytometry.",
  "data": [
    {"substance": "oligomicin", "values": [
      {"measurement": "synergy with IRAK-1,-4 inhibitor", "value": "No synergist effect"}
    ]}
  ]
}
